Results taken from article PMC6278568, “Discovery of 3-Amino-2-Hydroxypropoxyisoflavone Derivatives as Potential Anti-HCV Agents” (Molecules, 2018).
“Also recorded” adds a separate entry of the source.

Experiments:
[1] = tested on: Nrf2 / ARE transactivation; experiment: ARE transactivation, p3xARE-Luc reporter in Ava-5 cells (luciferase assay); format: cell-based; details: p3xARE-Luc-transfected Ava-5 cells, 1 and 10 μM, 3 days
Text: Heme oxygenase 1 expression is regulated by the transcription factors Nrf2, Keap1, and Bach1 through the binding of ARE in its promoter region; therefore, we determined whether isoflavones-mediated HO-1 induction was dependent on ARE transactivation by treating p3xARE-Luc-transfected ava-5 cells with increasing concentrations of […] for 3 days.
Ava5 cells were transfected with the HO-1 promoter-driven luciferase plasmid, pHO-1-Luc, using the T-pro^TM transfection reagent (Ji-Feng Biotechnology Co., Ltd., Taipei, Taiwan) according to the manufacturer′s instructions. The transfected cells were treated with compounds at various concentrations for 3 days. Each transfection complex contains 0.1 μg pSEAP, a secreted alkaline phosphatase (SEAP) expression vector, for normalization luciferase activity serving as a transfection control. The luciferase activity assay was performed using the Bright-Glo Luciferase assay system (Promega) (Madison, WI, USA) according to the manufacturer′s instructions.
Figure 6 Isoflavones inhibited HCV replication by upregulating Nrf2 expression. Compound 6b, 6e, 6h and 6i stimulated ARE transactivation in Ava-5 cells. The antioxidant response reporter plasmid, p3xARE-Luc, was transfected into Ava-5 cells and then treated with isoflavones (1 and 10 μM) for 3 days. The relative induction of antioxidant activity was determined by luciferase assay. The activity of untreated Ava-5 cells was considered to be 1.

[2] = tested on: HCV RNA; experiment: HCV RNA expression in Ava-5 cells by RT-qPCR; format: cell-based, Hepatitis C virus; details: Ava-5 cells, 2.5, 5, 10 and 20 μM, 3 days, normalized by GAPDH mRNA
Experimental: (§1) To further confirm the anti-HCV effect of compound 6b, we treated compound 6b at indicated concentrations in Ava-5 cells for 3 days. […] Treatment of 0.1% dimethyl sulfoxide (DMSO) served as a mock control on inhibition of HCV replication (Figure 3 and Figure 4).
Figure 3 Inhibition of HCV RNA expression in HCV-infected Ava-5 cells by 6b. Ava-5 cells were treated with 2.5, 5, 10 and 20 μM of 6b for 3 days. Total RNA was extracted and quantified HCV RNA levels by RT-qPCR. HCV RNA expression was normalized by cellular GAPDH mRNA. Treatment with 0.1% DMSO served as a mock control. The results are expressed as the means ± standard deviations (SD) of triplicate experiments.

[3] = tested on: HCV protein synthesis (NS5B); experiment: HCV protein synthesis in Ava-5 cells by western blotting; format: cell-based, Hepatitis C virus; details: Ava-5 cells, 2.5, 5, 10 and 20 μM, 3 days
Experimental: as §1
Ava5 cells were seeded in 24-well plates at a density of 5 × 10^4 cells per well overnight and treated with indicated reagent at proper concentrations for 3 days. Cells were washed with cold phosphate buffer saline (PBS) and lysed by radioimmunoprecipitation assay (RIPA) lysis buffer (50 mM Tris-HCl, pH 7.5, 150 mM NaCl, 1% Nonidet P-40, 2 mM EDTA, 1 mM EGTA, 1 mM NaVO3, 10 mM NaF, 1 mM DTT, 1 mM PMSF, 25 μg/mL aprotinin, and 25 μg/mL leupeptin) and stored at −20 °C. The protein concentration was determined by the Bradford method. Ten μg protein were separated by 10% SDS-PAGE and transferred onto a polyvinylidene difluorid (PVDF) membrane. The membrane was blocked with 5% non-fat dried milk and incubated with specific antibodies against NS5B (1:5000; Abcam Cambridge, MA, USA), glyceraldehyde-3-phosphate dehydrogenase (GAPDH) and anti-HO-1 (1:3000, Abcam Cambridge, MA, USA). Antibodies were diluted in 5% milk containing Tris-buffered saline (TBS) and 0.5% Tween. The blotting signal was developed using an ECL detection kit (PerkinElmer, Norwalk, CT, USA) and was counted by the software Quantity One (Bio-Rad, Foster, CA, USA). […]

[4] = tested on: HO-1 protein expression; experiment: HO-1 protein expression in Ava-5 cells by western blotting; format: cell-based; details: 10 μM, 3 days, compared with DMSO-treated cells
Experimental: To determine whether compounds 6b, 6e, 6h and 6i have impact on HO-1 protein expression in Ava-5 cells, we treated these compounds at 10 μM in Ava5 cells.
Ava5 cells were seeded in 24-well plates at a density of 5 × 10^4 cells per well overnight and treated with indicated reagent at proper concentrations for 3 days. Cells were washed with cold phosphate buffer saline (PBS) and lysed by radioimmunoprecipitation assay (RIPA) lysis buffer (50 mM Tris-HCl, pH 7.5, 150 mM NaCl, 1% Nonidet P-40, 2 mM EDTA, 1 mM EGTA, 1 mM NaVO3, 10 mM NaF, 1 mM DTT, 1 mM PMSF, 25 μg/mL aprotinin, and 25 μg/mL leupeptin) and stored at −20 °C. The protein concentration was determined by the Bradford method. Ten μg protein were separated by 10% SDS-PAGE and transferred onto a polyvinylidene difluorid (PVDF) membrane. The membrane was blocked with 5% non-fat dried milk and incubated with specific antibodies against NS5B (1:5000; Abcam Cambridge, MA, USA), glyceraldehyde-3-phosphate dehydrogenase (GAPDH) and anti-HO-1 (1:3000, Abcam Cambridge, MA, USA). Antibodies were diluted in 5% milk containing Tris-buffered saline (TBS) and 0.5% Tween. The blotting signal was developed using an ECL detection kit (PerkinElmer, Norwalk, CT, USA) and was counted by the software Quantity One (Bio-Rad, Foster, CA, USA).
Compound 6b, 6e, 6h and 6i induced HO-1 protein expression. Ava-5 cells were treated with compounds at 10 μM for 3 days. The cell lysate was subjected to western blotting with anti-HO-1 and anti-GAPDH antibodies.

[5] = tested on: ava-5 cells; experiment: Cytotoxicity in Ava-5 cells (XTT method); format: cell-based
Experimental: (§2) Compounds were dissolved in DMSO at 10 mM and then diluted in culture medium.
(§3) Ava5 cells, an engineered HCV subgenomic replicon cell line, were cultured in Dulbecco′s modified Eagle′s medium (DMEM) with 10% heat-inactivated fetal bovine serum, 1% antibiotic–antimycotic, and 1% non-essential amino acids. Ava5 cells were maintained in DMEM with 1 mg mL^−1 G418 to maintain the stable expression of replicon.
(§4) For cytotoxicity tests, run in parallel with antiviral assays, plates at an initial density of (5 × 10^3 cells/well) were treated with or without serial dilutions of test compounds. Cell viability was determined after 72 h at 37 °C in a humidified CO2 (5%) atmosphere by the (2,3-bis[2-methyloxy-4-nitro-5-sulfophenyl]-2H-tetrazolium-5-carboxanilide) (XTT) method.

[6] = Cytotoxicity in Ava-5 cells (XTT method); format: cell-based; details: human, Ava5 cells (HCV subgenomic replicon cell line); Ava-5 cells, 72 h, XTT method; read-out: CC50 (concentration causing a 50% growth inhibition of uninfected ava-5 cells)
Experimental: as §2, §3, §4

[7] = tested on: HCV replication; experiment: Anti-HCV activity in Ava-5 HCV subgenomic replicon cells (firefly luciferase assay); format: cell-based, Hepatitis C virus; details: Ava-5 cells
Experimental: Ava-5 cells were treated with compounds 6a–i or the positive ribavirin for three days, and then analyzed through firefly luciferase assay. The concentration that inhibited 50% HCV replication (EC50), the concentration that inhibited 50% cell growth (CC50), and the selectivity index (SI: CC50/EC50) of compounds were determined with ribavirin as a positive control.
as §2, §3

With COc1ccc(CCNCC(O)COc2ccc3c(=O)c(-c4ccc(OC)c(OC)c4)coc3c2)cc1OC (stereo not drawn) [Compound 6b, 7-{3-[(3,4-Dimethoxyphenethyl)amino]-2-hydroxypropoxy}-3-(3,4-dimethoxyphenyl)-4H-chromen-4-one] the ARE-mediated luciferase activity [1] was “increased ARE-mediated luciferase activity”, the “HCV RNA replication / expression” value [2] was “dose-dependently reduced; also recorded: inhibit the HCV RNA expression in Ava5 cells in a dose-dependent manner” and the melting point was 134 to 135 °C. For the same compound, the HCV protein synthesis [3] was “dose-dependently reduced”, the HO-1 protein level [4] was “could induce HO-1 protein level” and the “cell cytotoxicity at the antiviral test concentrations” value ([5]; Ava5 cells, 2.5-20 μM, 3 days) was “without cell cytotoxicity”. The “cytotoxicity compared with ribavirin (in words)” value ([5]; Ava-5 cells) was “less cytotoxic than ribavirin”, the CC50 at 72 h [6] was 138 ± 6.91 µM and the “anti-HCV activity compared with ribavirin (in words)” value ([7]; three days) was “more active than ribavirin”. The “SI (selectivity index, CC50/EC50)” value ([7]; CC50/EC50) was 21.08, the EC50 ([7]; Hepatitis C virus, Ava5, 72 h, treated for three days, firefly luciferase assay, read-out: EC50 (concentration resulting in a 50% inhibition in virus production / HCV replication)) was 6.53 ± 0.57 µM and the “anti-HCV activity relative to ribavirin” value ([7]; ratio of EC50 values) was “approximately 2 fold”.
